Experimental data published in patent publication US6805816B1, “Method of producing π-conjugated polymers” (Bayer Aktiengesellschaft, priority 1999, dated 2004).
≈ marks a conversion by molar mass, not a printed value.

Columns and labels:
[1] = Stability: discoloration in air; settings: Monomer alone; in air after only a few hours
physchem = assay: physchem
Text: The cyclodextrin employed was in each case 2,6-dimethyl-β-cyclodextrin.

increase of water solubility (physchem)	solubility (physchem; 20 °C, water)	SMILES	Stability [1]
–	–	c1cc[nH]c1 [Pyrrole, pyrrole]	Pyrrole: discoloration
more than 30 fold	2100 µg/mL (≈ 14.8 mM)	c1scc2c1OCCO2 [EDT, 3,4-ethylenedioxythiophene]	–
